Like-named read-outs stand apart in the source and are kept apart here.
Key:
kynurenine production = settings: competes with tryptophan; cited from earlier work
T cells = settings: in the presence of IDO-expressing cancer cells and dendritic cells; cited from earlier work
allogeneic pregnant mice = settings: cited from earlier work
mouse melanoma cells = settings: cited from earlier work
[1] = test system: kynurenine production in IFN-γ-treated KATO-III cells; experiment: Inhibitory activity on kynurenine production (Test Example 1); type: cell-based; settings: Homo sapiens, IFN-γ treatment, culture for 96 hours, read-out: IC50 value, inhibition of kynurenine production
Procedure, shortened: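 KATO-III human gastric cancer cells (2,000/well, RPMI 1640 + 10% FBS) were cultured with compound and IFN-γ (31.25 ng/mL in the cell suspension), DMSO ≤0.1%, for 96 h at 37 °C, 5% CO2. Kynurenine was read at A480 after TCA at 65 °C and p-dimethylaminobenzaldehyde. Inhibition used IFN-γ-treated and untreated DMSO wells as references.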

[2] = test system: 4T1 mouse breast cancer cells; experiment: Antitumor effect in mice transplanted with 4T1 cells (Test Example 2); type: in vivo, BALB/c mice; settings: for T/C: oral, once or twice daily
Description: 5-week-old BALB/c mice (male, supplied from CLEA Japan, Inc.) were purchased. After quarantine and stabilization, mice which favorably gained their weight and had no apparent abnormalities were used in the test. The test started from 6 weeks of age. The mice were housed in groups of 6 mice per plastic cage with free access to commercial solid feed and water in a breeding room in which the room temperature was 19° C. to 25° C., the humidity was 30 to 70% and the light was kept on for 12 hours a day (7:00 a.m. to 7:00 p.m.).
The abdominal hair of the BALB/c mice was shaved on the day before the test. Transplantation was performed by subcutaneous injection of a suspension containing 1×10^6 4T1 mouse breast cancer cells in 100 μL of phosphate buffered saline (PBS) from the shaved region of each mouse.
When the tumor volume reached 30 to 80 mm^3, the mice were divided into groups so that the average tumor volume of each group was equal. The test compound was suspended in 0.5% (w/v) methylcellulose 400 cP (manufactured by Wako Pure Chemical Industries, Ltd.), and the suspension was orally administered to each mouse of the corresponding group once or twice daily. The tumor volume was calculated using the formula (a×b^2)/2 (a: tumor major axis, b: tumor minor axis). The tumor volume (V) was measured twice or three times a week, and the tumor growth rate (V/V0) was calculated by division of the tumor volume (V) by the tumor volume on the day of the first administration (V0). The T/C (treatment group/control group) value was calculated by division of the V/V0 value of the test compound treatment group by the V/V0 value of the control group, based on which the antitumor effect was evaluated.
Statistical analysis was performed on the tumor volumes of the control group and the treatment group, using student's T-test. If the p value was <0.05, we considered the difference significant.

[3] = Day 4 and Day 7 after administration

| Structure (SMILES) | IC50 [1] [µM] | also measured |
| --- | --- | --- |
| Cn1cc(C[C@H](N)C(=O)O)c2ccccc21 [Compound 1-MT, 1-methyltryptophan] | – | effect on kynurenine production (kynurenine production): inhibits kynurenine production; suppression of T cell proliferation (T cells): cancelled; MHC-restricted rejection (allogeneic pregnant mice): induces major histocompatibility complex (MHC)-restricted rejection; antitumor effect (mouse melanoma cells; immunodeficient mice): disappears; antitumor effect (mouse melanoma cells; mice bearing mouse melanoma cells): shows an antitumor effect |
| CCCS(=O)(=O)Nc1nc2ccccc2nc1OC(c1csc(C)n1)C(F)(F)F (stereo not shown) [Compound 344, N-{3-[2,2,2-trifluoro-1-(2-methylthiazol-4-yl)ethoxy]-quinoxalin-2-yl}propane-1-sulfonamide] | < 1 | – |
| CCCS(=O)(=O)Nc1nc2ccccc2nc1O[C@@H](C1CCOCC1)C(F)(F)F [Compound 346, (S)—N-{3-[2,2,2-trifluoro-1-(tetrahydro-2H-pyran-4-yl)-ethoxy]quinoxalin-2-yl}propane-1-sulfonamide] | 1 to 10 | – |
| CCCS(=O)(=O)Nc1nc2ccccc2nc1O[C@H](c1cccc(C#N)c1)C(F)(F)F [Compound 349, (R)—N-{3-[2,2,2-trifluoro-1-(3-cyanophenyl)ethoxy]-quinoxalin-2-yl}propane-1-sulfonamide] | < 1 | – |
| CCCS(=O)(=O)Nc1nc2ccccc2nc1OC(C(F)(F)F)C1(C#N)CCOCC1 (stereo not shown) [Compound 351, N-{3-[2,2,2-trifluoro-1-(4-cyanotetrahydro-2H-pyran-4-yl)-ethoxy]quinoxalin-2-yl}propane-1-sulfonamide] | < 1 | – |
| CCCS(=O)(=O)Nc1nc2ccccc2nc1OC(C(F)(F)F)C1(O)CCOCC1 (stereo not shown) [Compound 352, N-{3-[2,2,2-trifluoro-1-(4-hydroxytetrahydro-2H-pyran-4-yl)ethoxy]quinoxalin-2-yl}propane-1-sulfonamide] | 1 to 10 | – |
| CCCS(=O)(=O)Nc1nc2ccccc2nc1OC(C(F)(F)F)C1(C)CCN(C(C)=O)CC1 (stereo not shown) [Compound 356, N-{3-[2,2,2-trifluoro-1-(1-acetyl-4-methylpiperidin-4-yl)-ethoxy]quinoxalin-2-yl}propane-1-sulfonamide] | < 1 | – |
| CCCS(=O)(=O)Nc1nc2ccccc2nc1OC(C(F)(F)F)C1(C)CCN(S(C)(=O)=O)CC1 (stereo not shown) [Compound 357, N-{3-[2,2,2-trifluoro-1-(1-methanesulfonyl-4-methylpiperidin-4-yl)ethoxy]quinoxalin-2-yl}propane-1-sulfonamide] | < 1 | – |
| CCCS(=O)(=O)Nc1cc2ccccc2nc1OC(c1cccnc1)C(F)(F)F (stereo not shown) [Compound 358, N-{2-[2,2,2-trifluoro-1-(pyridin-3-yl)ethoxy]quinolin-3-yl}propane-1-sulfonamide] | 1 to 10 | – |
| O=S(=O)(Nc1cc2ccccc2nc1OC(c1cccnc1)C(F)(F)F)c1ccccc1Cl (stereo not shown) [Compound 360, 2-chloro-N-{2-[2,2,2-trifluoro-1-(pyridin-3-yl)ethoxy]-quinolin-3-yl}benzenesulfonamide] | 1 to 10 | – |
| O=S(=O)(Nc1nc2ccncc2nc1OC(c1cccnc1)C(F)(F)F)c1ccccc1Cl (stereo not shown) [Compound 362, 2-chloro-N-{2-[2,2,2-trifluoro-1-(pyridin-3-yl)ethoxy]-pyrido[3,4-b]pyrazin-2-yl}benzenesulfonamide] | 1 to 10 | – |

More lines, main results first:

| IC50 [1] [µM] | Structure (SMILES) | also measured |
| --- | --- | --- |
| < 1 | CC(Oc1nc2ccccc2nc1NS(=O)(=O)c1cccc(Cl)c1Cl)c1cccnc1 (stereo not shown) [Compound 16, 2,3-dichloro-N-{3-[1-(pyridin-3-yl)ethoxy]quinoxalin-2-yl}-benzenesulfonamide] | T/C ([2]; Day 3, dose 100 mg/kg): 0.62; tumor growth inhibition (in words) ([2]; Day 3 and Day 7 after administration): significantly inhibited tumor growth; T/C ([2]; Day 7, dose 100 mg/kg): 0.58 |
| < 1 | O=S(=O)(Nc1nc2ccccc2nc1OC(c1cccnc1)C(F)(F)F)c1cccc(Cl)c1Cl (stereo not shown) [Compound 20, 2,3-dichloro-N-{3-[2,2,2-trifluoro-1-(pyridin-3-yl)ethoxy]-quinoxalin-2-yl}benzenesulfonamide] | T/C ([2]; Day 4, dose 10 mg/kg): 0.68; tumor growth inhibition (in words) [2, 3]: significantly inhibited tumor growth; T/C ([2]; Day 7, dose 10 mg/kg): 0.69 |
| < 1 | CCCS(=O)(=O)Nc1nc2ccccc2nc1OC(c1cccnc1)C(F)(F)F (stereo not shown) [Compound 179, N-{3-[2,2,2-trifluoro-1-(pyridin-3-yl)ethoxy]quinoxalin-2-yl}propane-1-sulfonamide] | T/C ([2]; Day 4, dose 0.1 mg/kg): 0.76; tumor growth inhibition (in words) [2, 3]: significantly inhibited tumor growth; T/C ([2]; Day 7, dose 0.1 mg/kg): 0.50 |
| 1 to 10 | CCCS(=O)(=O)Nc1nc2ccccc2nc1OCc1cnc(C)s1 [Compound 345, N-{3-[(2-methylthiazol-5-yl)methoxy]quinoxalin-2-yl}-propane-1-sulfonamide] | – |
| < 1 | CCCS(=O)(=O)Nc1nc2ccccc2nc1O[C@H](C1CCOCC1)C(F)(F)F [Compound 347, (R)—N-{3-[2,2,2-trifluoro-1-(tetrahydro-2H-pyran-4-yl)-ethoxy]quinoxalin-2-yl}propane-1-sulfonamide] | – |
| < 1 | CCCS(=O)(=O)Nc1nc2ccccc2nc1O[C@H](c1ccc(Cl)nc1)C(F)(F)F [Compound 348, (R)—N-{3-[2,2,2-trifluoro-1-(6-chloropyridin-3-yl)ethoxy]-quinoxalin-2-yl}propane-1-sulfonamide] | – |
| < 1 | CCCS(=O)(=O)Nc1nc2ccccc2nc1OC(C(F)(F)F)C1(F)CCOCC1 (stereo not shown) [Compound 350, N-{3-[2,2,2-trifluoro-1-(4-fluorotetrahydro-2H-pyran-4-yl)-ethoxy]quinoxalin-2-yl}propane-1-sulfonamide] | – |
| < 1 | CCCS(=O)(=O)Nc1nc2ccccc2nc1OC(C(F)(F)F)C1(OC)CCOCC1 (stereo not shown) [Compound 353, N-{3-[2,2,2-trifluoro-1-(4-methoxytetrahydro-2H-pyran-4-yl)ethoxy]quinoxalin-2-yl}propane-1-sulfonamide] | – |
| < 1 | CCCS(=O)(=O)Nc1nc2ccccc2nc1OC(C(F)(F)F)C1(F)CCN(C(C)=O)CC1 (stereo not shown) [Compound 354, N-{3-[2,2,2-trifluoro-1-(1-acetyl-4-fluoropiperidin-4-yl)-ethoxy]quinoxalin-2-yl}propane-1-sulfonamide] | – |
| < 1 | CCCS(=O)(=O)Nc1nc2ccccc2nc1OC(C(F)(F)F)C1(F)CCN(S(C)(=O)=O)CC1 (stereo not shown) [Compound 355, N-{3-[2,2,2-trifluoro-1-(4-fluoro-1-methanesulfonylpiperidin-4-yl)ethoxy]quinoxalin-2-yl}propane-1-sulfonamide] | – |

Source: patent publication US8673908B2, “Kynurenine production inhibitor” (Kyowa Hakko Kirin Co., Ltd., priority 2008, dated 2014)
